The values that follow come from patent publication US10730886B2, “Compound having effect of inhibiting platelet aggregation and salt thereof, and composition for preventing or treating thrombotic diseases, containing same” (SHIN POONG PHARMACEUTICAL CO., LTD., priority 2015, dated 2020).

In series [1] the test system is iron chloride (FeCl3)-induced thrombogenesis model. The series can be described thus: Arterial thrombosis model, FeCl3-induced carotid artery thrombogenesis. The format is in vivo, Sprague-Dawley rats. As to conditions: rat, 25 mg/kg oral. How it is done: Vehicle (DMSO: Tween 80: DW=1:2:17) or candidate substance (25 mg/kg) was orally administered to overnight-fasted male Sprague-Dawley rats (250 to 300 g). 30 minutes after administration, the rats were anesthetized by intraperitoneal injection of urethane (1.25 g/kg). The anesthetized animals were restrained on the operating table, and the body temperature was maintained using a heating pad during the entire operating procedure. An incision was made around the neck of the animals to carefully expose the right carotid artery, and the adipose tissues attached to the blood vessels were carefully removed. Doppler flow probe (0.5 mm-diameter, MA0.5PSB, Transonic System Inc., USA) was fixed to the exposed carotid artery, and a doppler flow-meter (TS420, Transonic System Inc., USA) was connected thereto. 60 minutes after oral administration, a piece of Whatman No. 1 filter paper (2 mm×1 mm) soaked with 50% FeCl3 solution was attached to the underlying blood vessels to which the probe was fixed. The filter paper was removed after 10 minutes, and the change of blood flow due to thrombus formation in the carotid artery was measured for 60 minutes after the time point of removal. The occlusion time was defined as the time at which the blood flow became zero more than one minute for the first time.

Series [2] deals with ADP-induced platelet aggregation, Human PRP. The series can be described thus: ADP-induced platelet aggregation in human PRP (lumi-aggregometer). The format is cell-based. The settings on record: ADP 15-20 μM. As to the method:
To investigate whether the candidate substance has inhibition selectivity for shear-stress-induced platelet aggregation, which is by a physical stimulus, […] experiment was conducted by activating platelets with physiological agonists—i.e., thrombin, collagen and ADP—to study the inhibitory effect of the candidate substance.
Human PRP (598.8 μl) was treated with 1.2 μl of the candidate substance per concentration (25, 100, 250 μM) and reacted at 37° C. for 3 minutes using a thermomixer. Then, PRP (495 μl) was put in the aggregometer cuvette and preincubated for 1 minute, followed by treatment with platelet aggregation-inducing reagent, thrombin (0.6-0.8 U/ml), collagen (2-5 μg/ml), or ADP (adenosine diphosphate, 15-20 μM) at the minimum concentration causing maximum aggregation. The degree of aggregation of the platelets was measured by a turbidity change using a lumi-aggregometer (Chrono-Log Co., USA). The turbidity of the PRP was considered as 0%, and the turbidity of the PPP was considered as 100%. During the measurement, the reaction mixture was continuously stirred at 1,000 rpm with a silicone-coated magnetic stir bar.

A further series relates to human platelets. The series can be described thus: Cytotoxicity in human platelets (LDH leakage). The settings on record: 3 min. The format is cell-based. As to the method:
5-2. Evaluation of Cytotoxicity of Candidate Substances Using Human Platelets
Leakage of lactate dehydrogenase (LDH) from the platelets was measured by a spectro-photometry method. 1.2 μl of the test substance was added to 598.8 μl of PRP, and the mixture was reacted at 37° C. for 3 minutes using a thermomixer. After the reaction, 100 μl of the sample was centrifuged at 12,000 g for 2 minutes, and 80 μl of the supernatant was taken and refrigerated until evaluation. The evaluation was performed within 24 hours. […] 25 μl of the sample was added to 1 ml of a pre-warmed Tris-EDTA NADH solution (56 mM Tris(hydroxymethyl) aminomethane, 5.6 mM EDTA, 0.17 mM β-NADH pH 7.4) and reacted for 5 minutes at 37° C. Then, 100 μl of a 14 mM pyruvate solution previously heated at 37° C. was added to the reaction mixture, and absorbance was immediately measured at a wavelength of 339 nm for 1 minute using a spectrophotometer (UV-Vis spectrophotometer, UV-2201, Shidamadzu, Japan). The rate of decrease in absorbance means the rate of oxidation of NADH, indicating the activity of LDH liberated from platelets. Total activity of LDH was measured by inducing lysis of platelets with 0.3% Triton X-100. The basal level of LDH (Control) was measured in plasma. The activity of each sample was measured as a percentage of the total activity of LDH.
Background: LDH leaks from cells whose membrane has failed.

Series [3] relates to plasma. The series can be described thus: Plasma coagulation time, Activated Partial Thromboplastin Time (aPTT). The format is biochemical. The settings on record: plasma treated 3 minutes. How it is done:
(§1) In order to separate plasma, blood was collected with 3.2% sodium citrate as an anticoagulant. Whole blood was centrifuged at 2000 g for 20 minutes to obtain plasma. After treating the plasma with the test substances for 3 minutes, plasma coagulation time was measured. For plasma coagulation time, Activated Partial Thromboplastin Time (aPTT) and Prothrombin Time (PT) were measured using BBL® Fibrometer (Becton Dickinson, Cockeysville, Md.). For measurement of aPTT, the plasma was treated with aPTT reagents in fibrometer cup and reacted at 37° C. for 3 min. After the reaction, CaCl2 was added and blood coagulation time was measured immediately. For the measurement of PT, PT reagent was added to warmed plasma, and blood coagulation time was measured immediately. DTI, known to prolong plasma coagulation time, was used as a control.

Series [4] has as its system plasma. The series can be described thus: Plasma coagulation time, Prothrombin Time (PT). The format is biochemical. The settings on record: plasma treated 3 minutes. How it is done:
as §1

`O=C(c1cc(O)ccc1O)N1CCC(c2noc3ccc(F)cc23)CC1` [Example 23, (2,5-Dihydroxyphenyl)(4-(5-fluorobenzo[d]isoxazol-3-yl)piperidin-1-yl)methanone]: the “Time of thrombogenesis” value in series [1] (FeCl3 applied 60 min after administration, occlusion time) was 674 ± 92 s. Also, the “Fold (vs. Control)” value in series [1] (time of thrombogenesis vs. vehicle control) worked out at 1.9. The figures for the “Degree of platelet aggregation (%, Mean ± SEM)” value in series [2] (compound 25 μM), in series [2] (compound 100 μM) and in series [2] (compound 250 μM) were 73.5 ± 1.5%, 66.0 ± 1.0% and 65.0 ± 0.0%, respectively. For the same compound, the “LDH leakage (%, Mean ± SEM)” value was 1.8 ± 0.1% in the series on human platelets (25 μM), 2.2 ± 1.3% in the series on human platelets (100 μM) and 3.2 ± 0.5% in the series on human platelets (250 μM). The “plasma coagulation time - aPTT, Time” value in the series on plasma [3] (25 μM) was determined as 26.2 ± 0.2 s; in the series on plasma [3] (100 μM) it was 29.5 ± 1.2 s; in the series on plasma [3] (250 μM) it was 26.1 ± 0.2 s. For the same compound, the “plasma coagulation time - PT, Time” value was found to be 10.3 ± 0.1 s with plasma [4] (25 μM), 10.7 ± 0.2 s in the series with plasma [4] (100 μM) and 10.8 ± 0.3 s in the series on plasma [4] (250 μM).
